The results in this text go back to PubChem BioAssay AID192 (DTP/NCI, 2004).

SMILES strings stand for the structures. “And” between values parts separate entries of the source, which are not always exact repeats. Equal entries are not always repeated. Toxic doses and inconclusive results are not listed.

For the experiment, the system named is BDF1 mice, B16 melanoma ip, median survival T/C. The experiment can be described thus: NCI In Vivo Anticancer Drug Screen. Data for tumor model B16 Melanoma (intraperitoneal) in B6D2F1 (BDF1) mice. As to conditions: endpoint: median survival time, higher = longer survival. The procedure, abridged: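 Antitumor activity is assessed in mice bearing a transplanted tumor, with survival or tumor size compared against vehicle-dosed controls and expressed as T/C.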

Setting [1] is: dose: 25.0 mg/kg/injection, schedule: Q01DX009 (ip), vehicle: Klucel (hydroxypropylcellulose) (HPC).
[2] abbreviates: dose: 50.0 mg/kg/injection, schedule: Q01DX009 (ip), vehicle: Klucel (hydroxypropylcellulose) (HPC).
[3] abbreviates: dose: 100.0 mg/kg/injection, schedule: Q01DX009 (ip), vehicle: Klucel (hydroxypropylcellulose) (HPC).
Setting [4] is: dose: 100.0 mg/kg/injection, schedule: Q01DX009 (ip), vehicle: saline.
Where [5] appears, read: dose: 200.0 mg/kg/injection, schedule: Q01DX009 (ip), vehicle: saline.
Where [6] appears, read: dose: 12.5 mg/kg/injection, schedule: Q01DX009 (ip), vehicle: Klucel (hydroxypropylcellulose) (HPC).
[7] abbreviates: dose: 50.0 mg/kg/injection, schedule: Q01DX009 (ip), vehicle: saline.
[8] abbreviates: dose: 100.0 mg/kg/injection, schedule: Q01DX009 (ip), vehicle: saline with Tween-80.

As for `OCCN1CCN(CCCN2c3ccccc3CCc3ccccc32)CC1`, the T/C (dose: 3.9 mg/kg/injection, schedule: Q01DX009 (ip), vehicle: saline) is 95 % of control; the T/C (dose: 7.81 mg/kg/injection, schedule: Q01DX009 (ip), vehicle: saline) is 93 % of control; the T/C (dose: 15.62 mg/kg/injection, schedule: Q01DX009 (ip), vehicle: saline) was 100 % of control; the T/C (dose: 31.25 mg/kg/injection, schedule: Q01DX009 (ip), vehicle: saline) is 97 % of control; the T/C (dose: 62.5 mg/kg/injection, schedule: Q01DX009 (ip), vehicle: saline) was 95 % of control.

`CCN(CC)CCSC(CO)c1ccccc1` (configuration not stated): the T/C is, setting by setting: under setting [1], 103 % of control; under setting [2], 96 % of control; under setting [3], 93 % of control.

`Cc1c(O)c2c(c(O)c1Cc1ccc(CN)cc1)C(=O)c1ccccc1C2=O`: the T/C runs as follows: (dose: 0.78 mg/kg/injection, schedule: Q01DX009 (ip), vehicle: water) 109 % of control; (dose: 1.56 mg/kg/injection, schedule: Q01DX009 (ip), vehicle: water) 109 % of control; (dose: 3.13 mg/kg/injection, schedule: Q01DX009 (ip), vehicle: water) 98 % of control; (dose: 6.25 mg/kg/injection, schedule: Q01DX009 (ip), vehicle: water) 93 % of control.

Consider `CC(=N/NC(N)=S)/C(C)=N/NC(N)=S`, for which the T/C under setting [4] is 118 % of control and the T/C under setting [5] is 97 % of control.

Regarding `C[n+]1ccccc1/C=C/c1cccc([N+](=O)[O-])c1`, the T/C (dose: 5.0 mg/kg/injection, schedule: Q01DX009 (ip), vehicle: saline with Tween-80) is 110 % of control; the T/C (dose: 5.0 mg/kg/injection, schedule: Q04DX003 (ip), vehicle: saline with Tween-80) was 105 % of control; the T/C (dose: 10.0 mg/kg/injection, schedule: Q01DX009 (ip), vehicle: saline with Tween-80) was 100 % of control; the T/C (dose: 20.0 mg/kg/injection, schedule: Q01DX009 (ip), vehicle: saline with Tween-80) was 100 % of control; the T/C (dose: 20.0 mg/kg/injection, schedule: Q04DX003 (ip), vehicle: saline with Tween-80) was 89 % of control.

In the case of `FC(F)(F)c1ccc2c(c1)N(CCCN1CCN(CC[n+]3ccccc3)CC1)c1ccccc1S2`, the T/C by setting is: (dose: 1.25 mg/kg/injection, schedule: Q01DX009 (ip), vehicle: saline) 100 % of control; (dose: 2.5 mg/kg/injection, schedule: Q01DX009 (ip), vehicle: saline) 105 % of control; (dose: 5.0 mg/kg/injection, schedule: Q01DX009 (ip), vehicle: saline) 105 % of control and 107 % of control; (dose: 10.0 mg/kg/injection, schedule: Q01DX009 (ip), vehicle: saline) 89 % of control and 97 % of control.

With `CC(C)Nc1ccc(Nc2ccc(NC(C)C)cc2)cc1`, the T/C is 100 % of control (dose: 4.5 mg/kg/injection, schedule: Q01DX009 (ip), vehicle: alcohol); 102 % of control (dose: 6.75 mg/kg/injection, schedule: Q04DX003 (ip), vehicle: alcohol); 92 % of control (dose: 9.0 mg/kg/injection, schedule: Q01DX009 (ip), vehicle: alcohol); 92 % of control and 97 % of control (dose: 13.5 mg/kg/injection, schedule: Q04DX003 (ip), vehicle: alcohol).

Regarding `CCCCNC(C)(C)C(S)c1ccc(Cl)cc1` (configuration not stated), the T/C runs as follows: (dose: 6.25 mg/kg/injection, schedule: Q01DX009 (ip), vehicle: Klucel (hydroxypropylcellulose) (HPC)) 102 % of control; under setting [6], 97 % of control; under setting [1], 89 % of control.

With `COc1cc(/C=C2/c3cc(Cl)ccc3-c3c(Cl)cc(Cl)cc32)cc(OC)c1OC`, the T/C was 86 % of control (dose: 0.2 mg/kg/injection, schedule: Q01DX009 (ip), vehicle: saline with Tween-80); 86 % of control (dose: 0.4 mg/kg/injection, schedule: Q01DX009 (ip), vehicle: saline with Tween-80); 86 % of control (dose: 0.8 mg/kg/injection, schedule: Q01DX009 (ip), vehicle: saline with Tween-80).

Consider `Cc1cccnc1C`, for which the T/C reads like this: (dose: 25.0 mg/kg/injection, schedule: Q04DX003 (ip), vehicle: saline) 103 % of control; (dose: 50.0 mg/kg/injection, schedule: Q04DX003 (ip), vehicle: saline) 104 % of control; (dose: 100.0 mg/kg/injection, schedule: Q04DX003 (ip), vehicle: saline) 112 % of control.

Take `CCCCCCCCCCCCCCCCN(C(=S)c1ccccc1)c1ccccc1`: the T/C runs as follows: under setting [3], 94 % of control; (dose: 200.0 mg/kg/injection, schedule: Q01DX009 (ip), vehicle: Klucel (hydroxypropylcellulose) (HPC)) 95 % of control; (dose: 400.0 mg/kg/injection, schedule: Q01DX009 (ip), vehicle: Klucel (hydroxypropylcellulose) (HPC)) 97 % of control.

Turning to `Cc1ccc2cc3c(ccc4ccccc43)c3c2c1CC3`, the T/C under setting [7] was 124 % of control; the T/C under setting [8] is 120 % of control; the T/C (dose: 100.0 mg/kg/injection, schedule: Q04DX003 (ip), vehicle: saline with Tween-80) was 110 % of control; the T/C (dose: 200.0 mg/kg/injection, schedule: Q01DX009 (ip), vehicle: saline with Tween-80) was 114 % of control; the T/C (dose: 200.0 mg/kg/injection, schedule: Q04DX003 (ip), vehicle: saline with Tween-80) is 110 % of control; the T/C (dose: 400.0 mg/kg/injection, schedule: Q04DX003 (ip), vehicle: saline with Tween-80) is 115 % of control.

For `COC(=O)C(N)CSCc1ccccc1` (configuration not stated), the T/C runs as follows: under setting [4], 95 % of control; under setting [5], 106 % of control.

Regarding `COC(=O)c1ccc(=O)c2nc3/c(=C/O)c(O)cc(=O)c3[nH]c12`, the T/C (dose: 0.01 mg/kg/injection, schedule: Q01DX009 (ip), vehicle: saline with Tween-80) was 102 % of control; the T/C (dose: 0.01 mg/kg/injection, schedule: Q04DX003 (ip), vehicle: saline with Tween-80) was 91 % of control; the T/C (dose: 0.02 mg/kg/injection, schedule: Q01DX009 (ip), vehicle: saline with Tween-80) was 90 % of control; the T/C (dose: 0.02 mg/kg/injection, schedule: Q04DX003 (ip), vehicle: saline with Tween-80) is 102 % of control; the T/C (dose: 0.04 mg/kg/injection, schedule: Q01DX009 (ip), vehicle: saline with Tween-80) is 95 % of control; the T/C (dose: 0.04 mg/kg/injection, schedule: Q04DX003 (ip), vehicle: saline with Tween-80) was 106 % of control.

Take `C[N+]1(C)C2CC(=O)CC1C1CC12` (configuration not stated) (tested in a mixture with another compound): the T/C runs as follows: (dose: 25.0 mg/kg/injection, schedule: Q01DX009 (ip), vehicle: saline) 102 % of control; under setting [7], 89 % of control; under setting [4], 99 % of control; under setting [5], 100 % of control.

For `COc1cc2c(c(OC)c1OC)-c1ccc(OC)c(=O)cc1[C@@H](N)CC2`, the T/C is 120 % of control (dose: 0.31 mg/kg/injection, schedule: Q01DX009 (ip), vehicle: saline); 89 % of control (dose: 2.5 mg/kg/injection, schedule: Q01DX009 (ip), vehicle: Klucel (hydroxypropylcellulose) (HPC)); 110 % of control (dose: 5.0 mg/kg/injection, schedule: Q01DX009 (ip), vehicle: Klucel (hydroxypropylcellulose) (HPC)).

On to `IP(c1ccccc1)(c1ccccc1)(c1ccccc1)N1C2CCCCC21` (configuration not stated), for which the T/C runs as follows: (dose: 0.15 mg/kg/injection, schedule: Q01DX009 (ip), vehicle: saline) 115 % of control; (dose: 0.3 mg/kg/injection, schedule: Q01DX009 (ip), vehicle: saline) 111 % of control; (dose: 0.6 mg/kg/injection, schedule: Q01DX009 (ip), vehicle: saline) 111 % of control; (dose: 1.2 mg/kg/injection, schedule: Q01DX009 (ip), vehicle: saline) 92 % of control.

In the case of `COC1C(O)C(C)OC(O[C@@H]2C[C@H]3CC[C@@H]4[C@H](CC[C@]5(C)[C@@H](C6=CC(=O)OC6)CC[C@]45O)[C@@]3(C)[C@H](O)C2)C1O` (some centres not stated), the T/C under setting [6] was 96 % of control, the T/C under setting [1] is 87 % of control, the T/C under setting [2] is 95 % of control and the T/C under setting [3] is 98 % of control.

As for `CC(C)[NH-].CC(C)[NH-].[Cl][Pt+2][Cl]`, for the setting “dose: 12.5 mg/kg/injection, schedule: Q01DX009 (ip), vehicle: dextrose”, the T/C was 155 % of control.

For the molecule `Cc1nnc(NS(=O)(=O)c2ccc(N=Nc3nc4[nH]c(N)nc(=S)c4[nH]3)cc2)s1`, the T/C was 112 % of control (dose: 25.0 mg/kg/injection, schedule: Q01DX009 (ip), vehicle: saline with Tween-80); 100 % of control (dose: 50.0 mg/kg/injection, schedule: Q01DX009 (ip), vehicle: saline with Tween-80); 92 % of control under setting [8].
